Reference: US8404265B2, “Contact lenses for extended release of bioactive agents containing diffusion attenuators” (University of Florida Research Foundation, Inc., priority 2008, dated 2013)
Values belong to the compound of their own block, whether it stands above or below them.

Legend:
Assay type in all cases: physicochemical
[1] = DX uptake, release and partition coefficient, Vitamin E loaded lenses; details: release from Vitamin E loaded lenses
Experimental: Drug containing Vitamin E loaded lenses were prepared by directly adding drug to a Vitamin E-ethanol solution before soaking the pure lens in the solution, or by soaking a Vitamin E loaded lens in a drug-PBS solution. Drug containing Vitamin E-ethanol solutions were prepared by dissolving the drug in 3 ml of a Vitamin E-ethanol solution and then pure lens were soaked in this drug/Vitamin E-ethanol for 24 hours. The drug containing Vitamin E-ethanol lenses were taken from the solution blotted with wipes and dried overnight before subsequent release experiments.
For PureVision™ lens loaded with Vitamin E, only three different Vitamin E loadings were examined since the effect of Vitamin E loading on drug transport is minimal compared to other lenses. The insets in FIG. 21 show plots for drug release for the initial hours. Vitamin E was loaded in the lens, the lens were dried and DX was loaded in the Vitamin E loaded lens by soaking the lens in the DX-PBS solutions. […] DX loading time is relatively long for ACUVUE® OASYS™ lenses and relatively short for PureVision™ lenses relative to that of NIGHT&DAY™ and O2OPTIX lenses for similar Vitamin E loadings regardless of the level of Vitamin E loading.
For loading, an experimentally determined partition coefficient of drug in the Vitamin E loaded lens (K) is defined as: […]

[2] = Solubility of DX
Experimental: For various drug loading methods, the mass of drug released at various time increments was divided by the total drug released at long time and plotted as a function of time. […] A DX-ethanol solution of equivalent concentration as the DX-PBS, 0.08 mg/ml as that of DX-PBS solution was used to allow direct comparison of the two loading modes, although a saturated DX in ethanol is about 1 mg/ml. […] For these lenses, there is not much difference in the total release amount of DX from the lenses soaked in DX-PBS solution for two different soaking times, but slower DX release is observed from lenses that were soaked for 7 days than that for 24 hours. […] For total release amount of DX, PureVision™ and ACUVUE® OASYS™ lenses release relatively smaller amounts (about 28 μg and 35 μg, respectively) compared to the other three lenses (about 38-41 μg). There is no correlation between amount of drugs released and the water content, which is likely because the hydrophobic drugs are expected to partition in the silicone rich phases, and so the partition coefficients in the gels will be mainly influenced by the silicone composition of the lenses. All the lenses soaked in DX-ethanol solution release substantially low amount of DX (2-8 μg). […]

[3] = Diffusivity ratio from slope of % release versus square root of time; details: pure lenses
Text: FIG. 31 plots % drugs release by Vitamin E loaded lenses as a function of the square root of time, for DX, timolol, fluzonazole and DXP. The lines of FIG. 31 are best fit straight lines over short time release data having R^2 larger than 0.98. […] The straight lines can be expressed by the equation:
[formula] where Mt is the mass of drug released at time t, M∞ the mass of drug release as time approaches infinity and for perfect sink condition M∞=M0 (initial drug loading). Therefore, from the slope of the straight line in FIG. 31, diffusivities of drug in the Vitamin E loaded lens can be determined if the mean lens thickness is known. The slope for DX, timolol, fluzonazole and DXP release is plotted versus Vitamin E loading in FIG. 32A-D. The slope decreases as Vitamin E loading increases for all lenses for all drugs release, which means (√{square root over (D)}/h) decreases. […] The h also increases as Vitamin E loading increases and lens expands symmetrically for all expansion axes (isotropic expansion) as described above. The increase of h might be 6.8% for hydrated O2OPTIX lens with 34% Vitamin E loading from FIG. 5B. Consequently, √{square root over (D)} is 39.5% of that of pure lens, i.e., D of DX in the 34% Vitamin E loaded O2OPTIX lens is 15% of that of the vitamin free (pure) lens. […]

Compound: Vitamin E
Vitamin E in the release medium, PBS [1]: not detected

concentration of nearly saturated DX-PBS solution ([2]; PBS, room temperature): ~80 µg/mL
saturated DX in ethanol ([2]; ethanol): about 1 mg/ml
Compound: C[C@@H]1C[C@H]2[C@@H]3CCC4=CC(=O)C=C[C@]4(C)[C@@]3(F)[C@@H](O)C[C@]2(C)[C@@]1(O)C(=O)CO [DX, dexamethasone]

D0 of timolol relative to D0 of DX [3]: about 3 factor
Compound: CC(C)(C)NC[C@H](O)COc1nsnc1N1CCOCC1 [timolol]
